Among the data in patent publication US20100144733A1, “Compounds, compositions and methods comprising heteroaromatic derivatives” (Institute for OneWorld Health, priority 2008, published 2010) are IC50 values, retold here.

Molecules are shown by their SMILES.

The target of one experiment is T1, CHO-CFTR cell line (Homo sapiens, UniProt P13569).
T1 construct: expressed in transfected cells; host or cells: CHO (CHO-CFTR cell line)
The experiment can be described thus: CHO-CFTR assay (FLIPR assay, same conditions as the T84 assay). Conditions: imidazole and triazole-containing compounds. The format is cell-based.

Another experiment addresses T2, CFTR (Homo sapiens, UniProt P13569).
T2 construct: endogenous in cells; host or cells: T84 human colonic cells (ECACC)
The experiment can be described thus: T84 assay (FLIPR membrane potential dye, forskolin/IBMX-stimulated CFTR channel activity). The format is cell-based. Conditions: imidazole and triazole-containing compounds (Tables 13, 14, 14′), read-out: IC50 (μM) (T84 assay). The procedure, abridged: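 Fluorescence from a membrane potential dye in T84 monolayers (HBSS with 10 mM Hepes) is followed each second for 150 s. Cells are exposed to test compound during the 45 min dye loading, then challenged with forskolin (10 μM) and IBMX (100 μM) to open CFTR. Inhibitors suppress the depolarization-driven fluorescence increase.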

T2 sequence (P13569 whole entry): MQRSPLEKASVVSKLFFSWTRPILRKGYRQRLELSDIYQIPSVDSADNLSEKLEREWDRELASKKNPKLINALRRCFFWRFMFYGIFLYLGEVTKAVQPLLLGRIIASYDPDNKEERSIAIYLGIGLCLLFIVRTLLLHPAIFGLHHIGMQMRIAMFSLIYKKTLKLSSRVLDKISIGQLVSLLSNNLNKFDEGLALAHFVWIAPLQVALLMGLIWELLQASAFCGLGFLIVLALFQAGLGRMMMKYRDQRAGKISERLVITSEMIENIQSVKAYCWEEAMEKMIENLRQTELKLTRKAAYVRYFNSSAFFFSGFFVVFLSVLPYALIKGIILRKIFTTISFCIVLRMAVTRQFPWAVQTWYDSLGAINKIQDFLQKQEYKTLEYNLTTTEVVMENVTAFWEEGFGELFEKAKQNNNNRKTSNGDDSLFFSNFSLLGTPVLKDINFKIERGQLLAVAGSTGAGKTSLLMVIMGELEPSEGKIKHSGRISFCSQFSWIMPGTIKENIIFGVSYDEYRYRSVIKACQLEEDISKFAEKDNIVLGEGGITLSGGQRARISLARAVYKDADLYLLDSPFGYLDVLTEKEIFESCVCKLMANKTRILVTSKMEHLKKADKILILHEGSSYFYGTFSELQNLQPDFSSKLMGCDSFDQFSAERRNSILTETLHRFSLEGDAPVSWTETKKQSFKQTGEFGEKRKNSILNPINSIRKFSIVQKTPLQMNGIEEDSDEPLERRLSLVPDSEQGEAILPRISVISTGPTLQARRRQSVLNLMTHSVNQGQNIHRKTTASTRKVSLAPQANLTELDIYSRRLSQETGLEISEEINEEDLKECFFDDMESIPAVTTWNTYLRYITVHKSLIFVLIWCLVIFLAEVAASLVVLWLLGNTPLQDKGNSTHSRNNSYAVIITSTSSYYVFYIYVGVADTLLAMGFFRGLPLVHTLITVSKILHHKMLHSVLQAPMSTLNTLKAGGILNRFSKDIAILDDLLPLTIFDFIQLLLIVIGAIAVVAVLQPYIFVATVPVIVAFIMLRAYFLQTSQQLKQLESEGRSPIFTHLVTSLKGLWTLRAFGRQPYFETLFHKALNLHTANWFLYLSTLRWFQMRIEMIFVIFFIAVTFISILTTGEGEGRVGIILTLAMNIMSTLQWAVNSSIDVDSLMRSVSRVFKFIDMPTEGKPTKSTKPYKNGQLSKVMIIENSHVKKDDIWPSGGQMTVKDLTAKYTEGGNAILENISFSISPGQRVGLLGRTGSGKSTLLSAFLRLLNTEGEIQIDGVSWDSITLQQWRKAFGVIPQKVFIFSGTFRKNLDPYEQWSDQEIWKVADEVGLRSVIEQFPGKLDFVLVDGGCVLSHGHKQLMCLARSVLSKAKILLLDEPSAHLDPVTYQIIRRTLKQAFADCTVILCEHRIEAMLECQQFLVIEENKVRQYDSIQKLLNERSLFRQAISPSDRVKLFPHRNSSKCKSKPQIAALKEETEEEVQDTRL
T1 sequence (P13569 whole entry): as above

As for `CN(Cc1ccc(C(C)(C)C)cc1)C(=O)c1ncn(-c2cc(Cl)c(O)c(Cl)c2)n1` [1i, N-(4-tert-butylbenzyl)-1-(3,5-dichloro-4-hydroxyphenyl)-N-methyl-1H-1,2,4-triazole-3-carboxamide], the IC50 amounted to 5.38 µM against CHO-CFTR cell line and 4.26 µM on CFTR.

Consider `O=C(NCc1ccc(Oc2ccc(OCc3ccccc3)c(Cl)c2)cc1)c1ncn(-c2cc(Cl)c(O)c(Cl)c2)n1` [72i, N-(4-(4-(benzyloxy)-3-chlorophenoxy)benzyl)-1-(3,5-dichloro-4-hydroxyphenyl)-1H-1,2,4-triazole-3-carboxamide], for which the IC50 on CHO-CFTR cell line came to 12.3 µM; on CFTR it was 7.6 µM.

Turning to `CC(C)(C)c1ccc(CN(Cc2ccccc2)C(=O)c2ncn(-c3cc(Cl)c(O)c(Cl)c3)n2)cc1` [82i, N-benzyl-N-(4-tert-butylbenzyl)-1-(3,5-dichloro-4-hydroxyphenyl)-1H-1,2,4-triazole-3-carboxamide], the IC50 on CHO-CFTR cell line worked out at 19.7 µM; on CFTR it was 1.6 µM.

`O=C(NCc1ccc(Oc2ccc(OC(F)(F)F)cc2)cc1)c1ncn(-c2cc(Cl)c(O)c(Cl)c2)n1` [66i, 1-(3,5-dichloro-4-hydroxyphenyl)-N-(4-(4-(trifluoromethoxy)phenoxy)benzyl)-1H-1,2,4-triazole-3-carboxamide]: the IC50 against CHO-CFTR cell line is 11.3 µM; on CFTR it was 3.2 µM.

As to `O=C(NCc1ccc(Oc2ccc(OCc3ccccc3)c(F)c2)cc1)c1ncn(-c2cc(Cl)c(O)c(Cl)c2)n1` [71i, N-(4-(4-(benzyloxy)-3-fluorophenoxy)benzyl)-1-(3,5-dichloro-4-hydroxyphenyl)-1H-1,2,4-triazole-3-carboxamide], the IC50 stood at 31 µM at CHO-CFTR cell line and 8.06 µM at CFTR.

On to `O=C(NCc1cccc(OC(F)(F)F)c1)c1cn(-c2cc(Br)c(O)c(Br)c2)cn1` [20i, 1-(3,5-Dibromo-4-hydroxyphenyl)-N-(3-(trifluoromethoxy)benzyl)-1H-imidazole-4-carboxamide], for which the figures for the IC50 at CHO-CFTR cell line and on CFTR were 2.31 µM and 17.6 µM, respectively.

In the case of `Oc1c(Cl)cc(-n2cnc(C(O)(c3ccc(F)c(F)c3)c3ccc(F)c(F)c3)n2)cc1Cl` [55i, 4-(3-(bis(3,4-difluorophenyl)(hydroxy)methyl)-1H-1,2,4-triazol-1-yl)-2,6-dichlorophenol], the IC50 against CHO-CFTR cell line amounted to 6.94 µM; on CFTR it was 17.2 µM.

For `C=CCN(Cc1cccc(OC(F)(F)F)c1)C(=O)c1ncn(-c2cc(Cl)c(O)c(Cl)c2)n1` [103i, N-allyl-1-(3,5-dichloro-4-hydroxyphenyl)-N-(3-(trifluoromethoxy)benzyl)-1H-1,2,4-triazole-3-carboxamide], the IC50 on CHO-CFTR cell line was determined as 32.9 µM; at CFTR, 2.53 µM.

Consider `O=C(NCc1ccc(Oc2ccccc2)cc1)c1ncn(-c2cc(Cl)c(O)c(Cl)c2)n1` [49i, 1-(3,5-dichloro-4-hydroxyphenyl)-N-(4-phenoxybenzyl)-1H-1,2,4-triazole-3-carboxamide], for which the 50% inhibitory concentration (IC50) against CHO-CFTR cell line is 0.45 µM; at CFTR it was 1.57 µM.

`O=C(c1ncn(-c2cc(Cl)c(O)c(Cl)c2)n1)N(Cc1ccccc1)Cc1ccc(Oc2ccccc2)cc1` [80i, N-benzyl-1-(3,5-dichloro-4-hydroxyphenyl)-N-(4-phenoxybenzyl)-1H-1,2,4-triazole-3-carboxamide]: the IC50 stood at 13.3 µM against CHO-CFTR cell line and 4.4 µM at CFTR.

Regarding `O=C(NCc1ccc(Cl)c(Cl)c1)c1ncn(-c2cc(Cl)c(O)c(Cl)c2)n1` [37i, 1-(3,5-dichloro-4-hydroxyphenyl)-N-(3,4-dichlorobenzyl)-1H-1,2,4-triazole-3-carboxamide], the IC50 at CHO-CFTR cell line came to 5.71 µM; at CFTR, 2.67 µM.

For `CON(Cc1cccc(OC(F)(F)F)c1)C(=O)c1ncn(-c2cc(Cl)c(O)c(Cl)c2)n1` [125i, 1-(3,5-dichloro-4-hydroxyphenyl)-N-methoxy-N-(3-(trifluoromethoxy)benzyl)-1H-1,2,4-triazole-3-carboxamide], the IC50 against CHO-CFTR cell line stood at 9.67 µM; at CFTR it was 3.44 µM.

As usually defined, the IC50 is the concentration that gives 50% inhibition.
